# Experimental data as given in patent publication US20110160166A1, “Therapeutic composition for the treatment and prevention of athlete's foot and fungal infections of the nail and surrounding tissues” (priority 2009, published 2011).
# Tests used:
# [1] = Excerpt: Salicylic acid USP is well known as a strongly antimicrobial pharmaceutical ingredient. It is currently approved by US FDA as an Over-the-Counter active ingredient in anti-dandruff and anti-acne medicaments. Salicylic acid is a skin and eye irritant and a keratolytic, and must be used at low concentrations when applied to human tissue.
# [2] = system: nail fungus; settings: after 48 weeks of daily topical treatment; cited from earlier work
# [3] = system: toenail infections; settings: cited from earlier work
# [4] = system: fingernail infections; settings: terbinafine; 6 weeks of treatment, assessment at 18 weeks after completion of therapy; cited from earlier work
# [5] = biological target: Cytochrome P450 2D6 isozyme (Homo sapiens, UniProt P10635); settings: cited from earlier work
# Cytochrome P450 2D6 isozyme, sequence (P10635 whole entry): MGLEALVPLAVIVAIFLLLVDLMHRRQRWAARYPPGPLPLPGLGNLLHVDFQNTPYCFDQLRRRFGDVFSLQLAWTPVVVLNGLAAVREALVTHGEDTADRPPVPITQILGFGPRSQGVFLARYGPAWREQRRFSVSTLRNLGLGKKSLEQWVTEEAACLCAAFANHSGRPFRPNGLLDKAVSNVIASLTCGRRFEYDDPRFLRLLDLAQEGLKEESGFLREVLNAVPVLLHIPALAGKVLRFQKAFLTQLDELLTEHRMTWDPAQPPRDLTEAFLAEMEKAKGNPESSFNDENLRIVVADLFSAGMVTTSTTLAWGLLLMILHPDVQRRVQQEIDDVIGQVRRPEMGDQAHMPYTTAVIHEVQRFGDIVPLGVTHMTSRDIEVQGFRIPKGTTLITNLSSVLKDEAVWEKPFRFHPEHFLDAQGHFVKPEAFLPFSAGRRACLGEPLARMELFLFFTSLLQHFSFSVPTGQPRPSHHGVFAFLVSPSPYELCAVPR
smiles,measurement,setting,value
O=C(O)c1ccccc1O [Salicylic acid],keratolytic and irritant effects,"[1]; formulated into an anhydrous base, applied to human nail and surrounding tissues",dramatically reduced or eliminated
same,irritation experienced by the subject,[1]; high concentrations in anhydrous base,no irritation
"Cc1cc(C2CCCCC2)n(O)c(=O)c1 [Ciclopirox 8%, Ciclopirox]",patients who achieved clear or almost clear nails,[2],< 12%
CN(C/C=C/C#CC(C)(C)C)Cc1cccc2ccccc12 [terbinafine],cure rates for toenail infections,"[3]; terbinafine 250 mg oral, 12 weeks treatment, 36 weeks follow-up after completion of therapy",38%-59%
same,clinical relapse rate,"[3]; terbinafine, toenail infections",~15%
same,cure rates for fingernail infections,[4],59-79%
same,inhibition of Cytochrome P450 2D6 isozyme,[5],inhibitor
